Here are results for 20 compounds from patent US9238658B2, “Substituted piperidinyl-carboxamide derivatives useful as SCD 1 inhibitors” (Janssen Pharmaceutica NV, priority 2011, dated 2016).

Several values for one entry are separate records, joined by “and”; a condition that tells them apart may be missing. Equal entries are not always repeated. Some results are limits rather than exact numbers.

Assay [1] has as its target SCD1 (Rattus norvegicus (Rat), UniProt P07308). Briefly: SCD1 enzymatic assay in rat liver microsomes (RLM). The class given is biochemical. Particulars: for inhibition at 1 µM / % Inh. @ 1 μM: 1 μM test compound. The procedure:
Step 1: Preparation of Rat Liver Microsome (RLM)
Sprague Dawley rats from Charles River (200-225 g) underwent 2-cycle of fast-re-feeding (24-hour fast followed by 24-hour feeding with fat-free high carbohydrate diet, Research Diet, D00042802). The livers were removed and homogenized 1:4 (w/v) with pre-chilled, homogenizing buffer (10 mM Tris-HCl, 0.25 M sucrose, 1 mM EDTA, pH 7.4, supplemented with protease inhibitor cocktail). The homogenate was spun at 12,000×g for 15 min at 4° C. The supernatant was then re-centrifuged at 100,000×g for 60 min at 4° C. The pellet was re-suspended in 2 ml pre-chilled […] potassium phosphate buffer, pH 7.2, 10 mM EDTA at a concentration of 20 mg/ml. The resulting rat liver microsome (RLM) preparation was stored at […].
Step 2: SCD1 Enzymatic Assay in RLM:
The SCD1 enzymatic assay was done in a volume of 50 μL using 10 μg of RLM (prepared as described above) in a 96-well polypropylene plate (enzyme reaction buffer contains 0.1 M K-Phosphate Buffer, 10 mM ATP, 6 mM MgCl2, 1 mM CoA, 1 mM β-NADH, 1.6 mM L-glutathione, 20 μM Stearoyl-CoA). Stearoyl-[9,10-^3H]—CoA (ARC-0390, 1 mCi/mL, 60 Ci/mmol,) was added at a final concentration of 2 μCi/mL. Test compound was then added to the reaction mixture at the selected concentration. After incubation at room temperature for 2 hours, 5 μL 1 N HCl was added to stop the reaction, followed by addition of 25 μL of 10% charcoal. The reaction mixture was then transferred to 96-well Multiscreen plate (Millipore, Cat# MSFCN6B50). [^3H2O] was collected into Opti-plate (PE, Cat #6005290) by centrifuge, at 1,000 rpm for 2 minutes. 150 μL Microscint 40 (PE, cat #6013641) was then added to each well and counted on Topcount for [^3H] counts per minute (cpm). The measured cpm values were fitted with Sigmoidal dose-response curve fit with Graphpad Prism.

Assay [2] concerns the target SCD1 (Homo sapiens (Human), UniProt O00767). Briefly: SCD1 13C-palmitic acid assay in A431 cells. The class given is cell-based. Particulars: read-out: A431 cells 13C-PA IC50. The procedure: Human epithelial carcinoma A431 cells were seeded at 100,000 cells/well in complete growth medium (DMEM, Cellgro #10-013-CM, 4.5 g/L glucose, 10% FBS) in the presence of 0.05 mg/mL human insulin (Hannas Pharmaceutical Supply Co Inc, Humanlin 100 U/ml, 4 mg/ml) in 96-well tissue culture plate. […] The cells were then returned to the tissue culture incubator (37° C. and 5% CO2) for 4 hrs. At the end of incubation, the cells were washed three times with 200 μL/well Hanks buffer (HBSS) and then stored at −20° C. until extraction.
For fatty acid extraction, after thawing out the plates, 40 μL of 1N KOH (containing 5 μM of internal standard 7,7,8,8-D4 palmitate) was added to each well and cell plates were incubated at 37° C. for 30 minutes. […] Acetonitrile (100 μL) was then added to extract fatty acids, followed by centrifugation at 3000 rpm for 10 minutes. 75 μL of extract was then transferred to a new glass vial in a 96-well cluster plate. 5 μL was injected for LC/MS analysis for detection of ^13C-palmitic acid and ^13C-palmitoleic acid. Formation of product ^13C-palmitoleic acid was determined as an index of SCD1 activity.
LC/MS analysis was performed as following. An Agilent 1100 Liquid Chromatographic System (Palo Alto, Calif.) consisting of a binary pump, a degasser and an autosampler was used. Separation of free fatty acids was performed on a Zorbax SB—C8 column (2.1×50 mm, particle size=3.5 μm). An isocratic elution was carried out with 10 mM triethylamine acetate in water:acetonitrile (3:7) at a flow rate of 0.3 mL/min. The column temperature was set at 30° C. and the sample injection volume was 5 μL. The LC run cycle was 4 min, A Micromass triple-quadrupole Quattro Micro mass […] (Waters, Beverly, Mass.) was interfaced with the LC system through a Z-spray electrospray ion source and was operated in the negative ion mode. Nitrogen was used as nebulizing gas, desolvation gas and cone curtain gas and argon was chosen as collision gas. The triple quadrupole MS source parameters were set as follows: capillary voltage, 3200V; cone voltage, 25V; extractor 2V, source temperature, 120° C.; desolvation temperature, 300° C.; cone gas flow, 50 L/h; and desolvation gas flow, 700 L/h. […] MassLynx software version 4.0 was used for system control and data processing. The signal of U—^13C-palmitoleic acid was normalized to an internal standard.

Sequence of SCD1 (Rattus norvegicus (Rat), UniProt P07308) (P07308 whole entry): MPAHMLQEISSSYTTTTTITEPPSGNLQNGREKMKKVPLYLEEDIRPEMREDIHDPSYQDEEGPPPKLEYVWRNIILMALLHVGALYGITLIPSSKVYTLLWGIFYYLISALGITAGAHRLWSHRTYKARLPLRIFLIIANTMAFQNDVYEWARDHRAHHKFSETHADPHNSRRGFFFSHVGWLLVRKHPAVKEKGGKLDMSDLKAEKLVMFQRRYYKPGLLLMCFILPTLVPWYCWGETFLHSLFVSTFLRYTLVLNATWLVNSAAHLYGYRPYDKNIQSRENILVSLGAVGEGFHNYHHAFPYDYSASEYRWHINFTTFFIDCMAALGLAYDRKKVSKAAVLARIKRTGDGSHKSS
Sequence of SCD1 (Homo sapiens (Human), UniProt O00767) (O00767 whole entry): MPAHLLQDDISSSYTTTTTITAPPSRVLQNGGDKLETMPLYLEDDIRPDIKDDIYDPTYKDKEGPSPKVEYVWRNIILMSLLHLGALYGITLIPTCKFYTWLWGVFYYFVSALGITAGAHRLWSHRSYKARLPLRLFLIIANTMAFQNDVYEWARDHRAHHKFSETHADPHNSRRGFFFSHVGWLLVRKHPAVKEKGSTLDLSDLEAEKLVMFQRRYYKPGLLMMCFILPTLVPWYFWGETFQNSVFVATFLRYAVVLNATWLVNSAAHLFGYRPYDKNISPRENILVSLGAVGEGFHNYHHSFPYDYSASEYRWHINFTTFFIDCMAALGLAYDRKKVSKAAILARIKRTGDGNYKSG

With `O=C(Nc1nc2c(s1)COCC2)N1CCC(c2noc3ccc(F)cc23)CC1` [Compound 63, N-(6,7-dihydro-4H-pyrano[4,3-d]thiazol-2-yl)-4-(5-fluorobenzo[d]isoxazol-3-yl)piperidine-1-carboxamide], in assay [1], the half-inhibitory concentration (IC50) (commonly the concentration that inhibits the measured activity by half) stood at 0.085 µM and the inhibition – broadly, the relative decrease from the control value, in per cent – at 1 µM stood at 55%. For the same compound, in assay [2], the IC50 stood at 0.176 µM.

Take `NC(=O)c1cccc(NC(=O)N2CCC(N3CCc4ccc(F)cc43)CC2)c1` [Compound 16, N-(3-carbamoylphenyl)-4-(6-fluoroindolin-1-yl)piperidine-1-carboxamide]: in assay [1], the half-maximal inhibitory concentration (IC50) amounted to 0.02 µM and the inhibition at 1 µM was 96%. Further, in assay [2], the half-inhibitory concentration (IC50) is 0.093 µM.

As for `O=C(CO)N1CCc2nc(NC(=O)N3CCC(N4CCc5ccc(F)cc54)CC3)sc2C1` [Compound 35, 4-(6-fluoroindolin-1-yl)-N-(5-(2-hydroxyacetyl)-4,5,6,7-tetrahydrothiazolo[5,4-c]pyridin-2-yl)piperidine-1-carboxamide], the IC50 in assay [1] was found to be 0.096 µM; in assay [2], 0.113 µM. In addition, in assay [1], the inhibition at 1 µM amounted to 92%.

For `NC(=O)c1cnc(NC(=O)N2CCC(N3CCc4ccc(F)cc43)CC2)s1` [Compound 15, 2-(4-(6-fluoroindolin-1-yl)piperidine-1-carboxamido)thiazole-5-carboxamide], the values for the 50% inhibitory concentration (IC50) in assay [1] and in assay [2] were 0.022 µM and 0.049 µM, respectively. Besides, the inhibition at 1 µM in assay [1] stood at 101%.

Regarding `O=C(Nc1nc2c(s1)CC(O)CC2)N1CCC(c2noc3ccc(F)cc23)CC1` (stereo not drawn) [Compound 60, 4-(5-fluorobenzo[d]isoxazol-3-yl)-N-(6-hydroxy-4,5,6,7-tetrahydrobenzo[d]thiazol-2-yl)piperidine-1-carboxamide], in assay [1], the IC50 turned out to be 0.039 µM and the inhibition at 1 µM stood at 98%. For the same compound, in assay [2], the IC50 came out at 0.001 µM.

In the case of `O=C(Nc1nc2c(s1)CC(O)CC2)N1CCC(N2CCc3ccc(F)cc32)CC1` (stereo not drawn) [Compound 33, 4-(6-fluoroindolin-1-yl)-N-(6-hydroxy-4,5,6,7-tetrahydrobenzo[d]thiazol-2-yl)piperidine-1-carboxamide], in assay [1], the IC50 was 0.007 µM and 0.02 µM; the “% Inh. @ 1 μM” value stood at 99%; the inhibition at 1 µM stood at 97%. For the same compound, the half-maximal inhibitory concentration (IC50) in assay [2] was < 0.001 µM and 0.001 µM.

With `O=C(Nc1ncc(CCO)s1)N1CCC(N2CCc3ccc(F)cc32)CC1` [Compound 50, 4-(6-fluoroindolin-1-yl)-N-(5-(2-hydroxyethyl)thiazol-2-yl)piperidine-1-carboxamide], in assay [1], half-maximal inhibition (IC50) was put at 0.008 µM and the inhibition at 1 µM amounted to 102%. In assay [2], the IC50 is 0.006 µM.

With `NC(=O)c1cccc(NC(=O)N2CCC(n3ncc4c(F)cccc43)CC2)c1` [Compound 39, N-(3-carbamoylphenyl)-4-(4-fluoro-1H-indazol-1-yl)piperidine-1-carboxamide], in assay [1], the IC50 is 0.088 µM and 0.059 µM; the “% Inh. @ 1 μM” value was 86, 86%; the inhibition at 1 µM was 86%. The IC50 in assay [2] is 0.288 µM and 0.149 µM.

On to `O=C(Nc1nc(CO)cs1)N1CCC(N2CCc3ccc(F)cc32)CC1` [Compound 25, 4-(6-fluoroindolin-1-yl)-N-(4-(hydroxymethyl)thiazol-2-yl)piperidine-1-carboxamide], for which the 50% inhibitory concentration (IC50) in assay [1] was 0.052 µM; in assay [2], 0.042 µM. Besides, the inhibition at 1 µM in assay [1] was 94%.

As to `CNC(=O)c1cnc(NC(=O)N2CCC(N3CCc4ccc(F)cc43)CC2)s1` [Compound 19, 2-(4-(6-fluoroindolin-1-yl)piperidine-1-carboxamido)-N-methylthiazole-5-carboxamide], in assay [1], 0.093 µM corresponded to half-maximal inhibition (IC50) and the inhibition at 1 µM was determined as 94%. Besides, in assay [2], the IC50 came to 0.206 µM.

For `O=C(Nc1cccc(CO)c1)N1CCC(N2CCc3ccc(F)cc32)CC1` [Compound 43, 4-(6-fluoroindolin-1-yl)-N-(3-(hydroxymethyl)phenyl)piperidine-1-carboxamide], in assay [1], half-maximal inhibition (IC50) required 0.322 µM and the inhibition at 1 µM was found to be 61%. The IC50 in assay [2] turned out to be 0.161 µM.

With `Cc1cnc(NC(=O)N2CCC(N3CCc4ccc(F)cc43)CC2)s1` [Compound 21, 4-(6-fluoroindolin-1-yl)-N-(5-methylthiazol-2-yl)piperidine-1-carboxamide], in assay [1], 0.082 µM corresponded to half-maximal inhibition (IC50) and the inhibition at 1 µM was determined as 83%. The IC50 in assay [2] worked out at 0.108 µM.

On to `O=C(Nc1ncc(CO)s1)N1CCC(N2CCc3ccc(F)cc32)CC1` [Compound 24, 4-(6-fluoroindolin-1-yl)-N-(5-(hydroxymethyl)thiazol-2-yl)piperidine-1-carboxamide], for which, in assay [1], 0.088 µM corresponded to half-maximal inhibition (IC50) and the inhibition at 1 µM came out at 97%. In assay [2], the concentration for half-maximal inhibition (IC50) was 0.154 µM.

With `O=C(Nc1nc2c(s1)COCC2)N1CCC(N2CCc3ccc(F)cc32)CC1` [Compound 61, N-(6,7-dihydro-4H-pyrano[4,3-d]thiazol-2-yl)-4-(6-fluoroindolin-1-yl)piperidine-1-carboxamide], in assay [1], the IC50 is 0.204 µM and the inhibition at 1 µM was determined as 99%. For the same compound, the IC50 in assay [2] came to 0.017 µM.

On to `O=C1NCCn2nc(NC(=O)N3CCC(N4CCc5ccc(F)cc54)CC3)cc21` [Compound 37, 4-(6-fluoroindolin-1-yl)-N-(4-oxo-4,5,6,7-tetrahydropyrazolo[1,5-a]pyrazin-2-yl)piperidine-1-carboxamide], for which, in assay [1], the IC50 was 0.014 µM and 0.022 µM; the “% Inh. @ 1 μM” value was 89%; the inhibition at 1 µM worked out at 95%. In addition, the IC50 in assay [2] is 0.03 µM.

On to `Cc1cnc(NC(=O)N2CCC(c3noc4ccc(F)cc34)CC2)s1` [Compound 14, 4-(5-fluorobenzo[d]isoxazol-3-yl)-N-(5-methylthiazol-2-yl)piperidine-1-carboxamide], for which the IC50 in assay [1] turned out to be 0.303 µM; in assay [2], 0.169 µM. Also, the inhibition at 1 µM in assay [1] was 86%.

In the case of `O=C(Nc1nc2c(s1)CCCC2)N1CCC(N2CCc3ccc(F)cc32)CC1` [Compound 62, 4-(6-fluoroindolin-1-yl)-N-(4,5,6,7-tetrahydrobenzo[d]thiazol-2-yl)piperidine-1-carboxamide], in assay [1], half-maximal inhibition (IC50) was put at 0.347 µM and the inhibition at 1 µM is 68%. Besides, the IC50 in assay [2] is 0.076 µM.

For `CCOC(=O)Cc1csc(NC(=O)N2CCC(N3CCc4ccc(F)cc43)CC2)n1` [Compound 27, ethyl 2-(2-(4-(6-fluoroindolin-1-yl)piperidine-1-carboxamido)thiazol-4-yl)acetate], in assay [1], the IC50 turned out to be 0.29 µM and the inhibition at 1 µM is 80%. Moreover, the IC50 in assay [2] was above 1 µM.

For `Cc1csc(NC(=O)N2CCC(c3c[nH]c4ccccc34)CC2)n1` [Compound 65, 4-(1H-indol-3-yl)-N-(4-methylthiazol-2-yl)piperidine-1-carboxamide], the inhibition at 1 µM in assay [1] came out at 2%.

Regarding `NC(=O)c1cc(NC(=O)N2CCC(N3CCc4ccc(F)cc43)CC2)ccc1CO` [Compound 48, N-(3-carbamoyl-4-(hydroxymethyl)phenyl)-4-(6-fluoroindolin-1-yl)piperidine-1-carboxamide], in assay [1], the midpoint of inhibition, the IC50, lay at 0.909 µM and the inhibition at 1 µM stood at 55%.
